Literature values as cited in patent US20210145768A1, “MODULATING IMMUNE RESPONSE VIA TARGETING OF OLFACTORY RECEPTOR ACTIVITY” (La Jolla Institute for Allergy and Immunology, priority 2018, published 2021).

Tested on: olfactory receptors
Details: odorant (agonist) : olfactory receptor pair; cited from earlier work

Question: Which “Olfactory receptor agonized by the odorant (agonist)” value (“Olfactory receptor agonized” for short) does the source give for `O=C(O)CCCCCCCC(=O)O` [azelaic acid] here?
Answer: The value was “Olfr544 (human unknown)”.

Question: With `CC1=CCC(CCC(C)CO)C1(C)C` (stereo not drawn) [Brahmanol] as the molecule, how does the “Olfactory receptor agonized” value read?
Answer: Its value is “OR2AT4”.

Question: Which “Olfactory receptor agonized” value does the source give for `CCCCCOC(=O)CCC` [amyl butyrate] here?
Answer: The value was “OR2AG1”.
